Test [1] relates to Total Coliform. Kind of test: Ferrate disinfection test of harbor waters, Total Coliform count. It is filed as cell-based. An excerpt:
(§1) We have conducted preliminary ferrate disinfection tests of harbor waters at two locations in the Port of Cape Canaveral, Fla. Sample A was collected at the inner Port, while Sample B was collected closer to the exit at the Port nearer to the open ocean.

Test [2] has as its system E. coli. Kind of test: Ferrate disinfection test of harbor waters, E. coli count. In kind it is cell-based.
From the text: as §1

Test [3] concerns Heterotrophic bacteria. Nature of the test: Ferrate disinfection test of harbor waters, Heterotrophic bacterial plate count (HPC). In kind it is cell-based. Particulars: for HPC: ferrate dose 2.0 mg/L FeO4^2−.
From the text: as §1

In test [4] the test system is biofilm. The note with it: model condensers dosed with 10^−5 M solutions of ferrate twice a day, for 5 minutes; cited from earlier work.
For test [5], the system named is total coliforms. The note with it: water sources collected worldwide; cited from earlier work.
Test [6] deals with aerobic spore-formers. The note with it: chlorine resistant bacteria; cited from earlier work.
Test [7] concerns sulfite-reducing clostridia. The note with it: chlorine resistant bacteria; cited from earlier work.
The test system of test [8] is virus f2. The note with it: low concentrations in water; cited from earlier work.
Where [9] appears, read: harbor water Sample A, ferrate dose 1.0 mg/L FeO4^2−.
[10] abbreviates: harbor water Sample A, ferrate dose 2.0 mg/L FeO4^2−.
Where [11] appears, read: harbor water Sample B, ferrate dose 1.0 mg/L FeO4^2−.
The mark [12] stands for this setting: harbor water Sample B, ferrate dose 2.0 mg/L FeO4^2−.

SMILES strings stand for the structures.

For the compound `[O]=[Fe](=[O])([O-])[O-]` [Ferrate, ferrate], the “total coliform level after ferrate addition (in words)” value in test [1] (Sample A, ferrate dose 0.5 mg/L) is given as “reduced to non-detectable levels”. The “Total Coliform” value in test [1] (harbor water Sample A (inner Port, Port of Cape Canaveral), ferrate dose 0.5 mg/L FeO4^2−) was less than 1 MPN/100 mL; in test [1] (setting [9]), less than 1 MPN/100 mL; in test [1] (setting [10]) it was less than 1 MPN/100 mL; in test [1] (harbor water Sample B (near Port exit), ferrate dose 0.5 mg/L FeO4^2−) it was less than 1 MPN/100 mL; in test [1] (setting [11]), less than 1 MPN/100 mL; in test [1] (setting [12]), less than 1 MPN/100 mL. The “disinfection for E. coli (in words)” value in test [2] (both samples, dose 0.5 mg/L) is “effective in killing E. coli”. Also, the “E. Coli” value in test [2] (harbor water Sample A, ferrate dose 0.5 mg/L FeO4^2−) is reported as less than 1 MPN/100 mL; in test [2] (setting [9]), less than 1 MPN/100 mL; in test [2] (setting [10]) it was less than 1 MPN/100 mL; in test [2] (harbor water Sample B, ferrate dose 0.5 mg/L FeO4^2−), less than 1 MPN/100 mL; in test [2] (setting [11]), less than 1 MPN/100 mL; in test [2] (setting [12]) it was less than 1 MPN/100 mL. Moreover, the HPC in test [3] (harbor water Sample A) and in test [3] (harbor water Sample B) was less than 5 cfu/mL each time. For the same compound, the “levels of Heterotrophic bacteria after ferrate (in words)” value in test [3] (samples A and B, dose of approximately 2 mg/L) is on record as “reduced to non-detectable values”. Moreover, the biofilm growth result in test [4] is reported as “inhibited”. Further, the “removal of total coliforms” value in test [5] is given as “complete removal”. Besides, in test [6], the reduction of spore-formers entry is given as “up to 3 log units”. For the same compound, in test [7], the “killing of sulfite-reducing clostridia” value is reported as “effectively killed”. In test [8], the “inactivation of virus f2” value is recorded as “rapidly inactivates”.

The record behind these values is patent publication US7820025B2, “Methods of synthesizing an oxidant and applications thereof” (Ferrate Treatment Technologies, LLC, priority 2000, dated 2010).
